Read-outs that look alike come from different tables or passages of the source.
Assays:
PI3Kδ [1] = target: T1, PI3Kδ (Homo sapiens, UniProt O00329); conditions: cited from earlier work
T1 construct: purchased Merck Millipore

PI3Kα [2] = target: T2, PI3Kα (Homo sapiens, UniProt P42336); conditions: PI3Kδ versus PI3Kα, in words; cited from earlier work
T2 construct: purchased Merck Millipore (methods text)

PAMPA permeability = assay type: in vitro ADME
CD19+ B cells = assay: B cell (CD19+) proliferation assay, CFSE flow cytometry; assay type: cell-based; conditions: Homo sapiens, 96 h, read-out: IC50 CD19
Protocol: CD19 cells were isolated from PBMCs using magnetic beads (Stem Cell (Vancouver, Canada)) and then labeled with 2 µM of CFSE (Invitrogen (Waltham, MA, USA)).
After 4 days, cells were stained with LIVE/DEAD™ kit (Invitrogen (Waltham, MA, USA)). Samples were acquired using Attune NxT flow cytometer (Invitrogen) and analyzed using FlowJo software. Each biological assay was performed with cells isolated from a different donor. The presented results constitute the average percentage values of proliferating cells from 3 independent experiments.
Human PBMCs were isolated from buffy coats of healthy donors obtained from the Regional Blood Donation and Blood Medicine Center in Warsaw. Lymphocytes B: CD19+ cells were isolated from PBMCs on magnetic beads (Stem Cell), labeled with 2 µM CFSE (Invitrogen), and seeded on a 96-well plate (1 × 10^5 cells/well). B cells were activated by 2 µg/mL of αIgM (Jackson ImmunoResearch) and 1 µg/mL of ODN2006 (InvivoGen). Cells were incubated with increasing concentrations of compounds (range 0.03–10,000 nM). After 4 days, B cells were stained with LIVE/DEAD™ kit (Invitrogen), acquired using the Attune NxT flow cytometer (Invitrogen), and analyzed using FlowJo10 software. For data normalization, the percentage value of proliferating cells in each sample was divided by the average percentage value of positive control in a single experiment. IC50 values were calculated using a three-parameter dose–response inhibition function in GraphPad Prism.

[3] = Plasma protein binding, rat; assay type: in vitro ADME
Excerpt: Table 5 Selected parameters measured for CPL302415 (6). | column: Plasma Protein Binding [%] / Rat

[4] = Metabolic stability in mouse liver microsomes (MLM); assay type: in vitro ADME, mouse (CD-1)
[5] = Plasma protein binding, monkey; assay type: in vitro ADME
Excerpt: Table 5 Selected parameters measured for CPL302415 (6). | column: Plasma Protein Binding [%] / Monkey

PI3Kβ = target: T3, PI3Kβ (Homo sapiens, UniProt P42338); assay: In vitro PI3K inhibition assay (ADP-Glo kinase assay), PI3Kβ; assay type: biochemical; conditions: for IC50: mean of two independent experiments; for Fold Selectivity β/δ: ratio IC50 PI3Kβ / IC50 PI3Kδ
T3 construct: purchased Merck Millipore
T3 sequence (P42338 whole entry, looked up): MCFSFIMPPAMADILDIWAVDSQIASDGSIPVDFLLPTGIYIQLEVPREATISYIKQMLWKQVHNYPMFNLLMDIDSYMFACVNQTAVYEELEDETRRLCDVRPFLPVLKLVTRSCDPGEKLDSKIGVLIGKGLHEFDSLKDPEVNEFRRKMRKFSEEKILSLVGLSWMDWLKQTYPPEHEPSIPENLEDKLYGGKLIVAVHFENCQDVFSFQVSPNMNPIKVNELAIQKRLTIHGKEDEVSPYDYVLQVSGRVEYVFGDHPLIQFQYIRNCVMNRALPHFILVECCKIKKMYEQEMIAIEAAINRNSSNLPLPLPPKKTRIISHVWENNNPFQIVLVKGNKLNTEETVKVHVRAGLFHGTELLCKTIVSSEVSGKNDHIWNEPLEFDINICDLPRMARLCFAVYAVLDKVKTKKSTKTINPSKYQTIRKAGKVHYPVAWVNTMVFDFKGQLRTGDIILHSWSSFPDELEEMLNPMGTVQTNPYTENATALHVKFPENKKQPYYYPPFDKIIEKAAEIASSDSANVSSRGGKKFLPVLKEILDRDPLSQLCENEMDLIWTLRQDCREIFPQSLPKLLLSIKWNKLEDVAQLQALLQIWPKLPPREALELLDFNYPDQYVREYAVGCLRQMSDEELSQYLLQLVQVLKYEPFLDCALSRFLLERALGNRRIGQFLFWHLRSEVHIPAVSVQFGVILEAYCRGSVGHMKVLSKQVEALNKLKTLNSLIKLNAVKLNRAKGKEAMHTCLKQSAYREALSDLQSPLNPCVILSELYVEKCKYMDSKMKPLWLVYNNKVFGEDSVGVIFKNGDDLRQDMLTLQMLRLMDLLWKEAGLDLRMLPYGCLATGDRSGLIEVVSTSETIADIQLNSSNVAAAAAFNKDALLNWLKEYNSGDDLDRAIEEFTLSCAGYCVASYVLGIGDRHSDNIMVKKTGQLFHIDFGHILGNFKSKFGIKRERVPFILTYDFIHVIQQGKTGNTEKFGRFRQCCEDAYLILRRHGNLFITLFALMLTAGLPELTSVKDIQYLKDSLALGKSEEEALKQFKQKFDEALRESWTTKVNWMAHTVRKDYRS
Protocol: (§1) All compounds were tested in a biochemical assay that measured the inhibition of phosphatidylinositol […] production by PI3K isoforms using the ADP-Glo kinase assay (Promega). In addition, the effects of synthesized compounds on B cell proliferation were measured.
(§2) The potency and selectivity of compounds were assessed by measuring the ability of PI3K kinases to convert ATP to ADP during an enzymatic reaction in the presence of decreasing doses of tested compounds. The experiments were carried out using the ADP-Glo kinase assay kit (Promega), according to the manufacturer’s protocol. PI3Kα, PI3Kβ, PI3Kδ, and PI3Kγ have been purchased from Merck Millipore and phosphoinositol-4,5-bisphosphate (PIP2) lipid vesicles with phosphoserine from ThermoFisher Scientific were used as a substrate in the enzymatic reaction.
(§3) After the reaction, the ADP-Glo reagent and the kinase detection reagent were added sequentially with 40 min of incubation (25 °C, 600 rpm) after adding each reagent. Finally, the luminescence intensity was measured and the IC50 was calculated using GraphPad Prism 7 software. The presented results are the mean value of IC50 from at least two independent experiments.

[6] = Metabolic stability in human liver microsomes (HLM); assay type: in vitro ADME; conditions: read-out: Metabolic Stability HLM t½
[7] = Kinetic solubility, shake-flask protocol; assay type: physicochemical; conditions: aqueous buffer, kinetic from dmso stock; phosphate-buffered saline pH 7.4, 25 °C
Bioavailability in dogs = conditions: dog, in vivo, depending on the formulation form, read-out: bioavailability F
PI3Kα [8] = target: T2, PI3Kα; assay: In vitro PI3K inhibition assay (ADP-Glo kinase assay), PI3Kα; assay type: biochemical; conditions: for Fold Selectivity α/δ: ratio IC50 PI3Kα / IC50 PI3Kδ
Protocol: as §1, §2, §3

PI3Kδ [9] = target: T1, PI3Kδ; assay: In vitro PI3K inhibition assay (ADP-Glo kinase assay), PI3Kδ; assay type: biochemical; conditions: mean of two independent experiments
[10] = Plasma protein binding, mice; assay type: in vitro ADME; conditions: mouse
Excerpt: Table 5 Selected parameters measured for CPL302415 (6). | column: Plasma Protein Binding [%] / Mice

Bioavailability in mice = conditions: mouse, in vivo, depending on the formulation form, read-out: bioavailability F
[11] = Plasma protein binding, range across species; assay type: in vitro ADME; conditions: human, monkey, mouse, rat, range depending on the species, read-out: plasma protein binding (PPBs)
[12] = Plasma protein binding, human; assay type: in vitro ADME
Excerpt: Table 5 Selected parameters measured for CPL302415 (6). | column: Plasma Protein Binding [%] / Human

PI3Kγ = target: T4, PI3Kγ (Homo sapiens, UniProt P48736); assay: In vitro PI3K inhibition assay (ADP-Glo kinase assay), PI3Kγ; assay type: biochemical; conditions: for IC50: mean of two independent experiments; for Fold Selectivity γ/δ: ratio IC50 PI3Kγ / IC50 PI3Kδ
T4 construct: purchased Merck Millipore
T4 sequence (P48736 whole entry): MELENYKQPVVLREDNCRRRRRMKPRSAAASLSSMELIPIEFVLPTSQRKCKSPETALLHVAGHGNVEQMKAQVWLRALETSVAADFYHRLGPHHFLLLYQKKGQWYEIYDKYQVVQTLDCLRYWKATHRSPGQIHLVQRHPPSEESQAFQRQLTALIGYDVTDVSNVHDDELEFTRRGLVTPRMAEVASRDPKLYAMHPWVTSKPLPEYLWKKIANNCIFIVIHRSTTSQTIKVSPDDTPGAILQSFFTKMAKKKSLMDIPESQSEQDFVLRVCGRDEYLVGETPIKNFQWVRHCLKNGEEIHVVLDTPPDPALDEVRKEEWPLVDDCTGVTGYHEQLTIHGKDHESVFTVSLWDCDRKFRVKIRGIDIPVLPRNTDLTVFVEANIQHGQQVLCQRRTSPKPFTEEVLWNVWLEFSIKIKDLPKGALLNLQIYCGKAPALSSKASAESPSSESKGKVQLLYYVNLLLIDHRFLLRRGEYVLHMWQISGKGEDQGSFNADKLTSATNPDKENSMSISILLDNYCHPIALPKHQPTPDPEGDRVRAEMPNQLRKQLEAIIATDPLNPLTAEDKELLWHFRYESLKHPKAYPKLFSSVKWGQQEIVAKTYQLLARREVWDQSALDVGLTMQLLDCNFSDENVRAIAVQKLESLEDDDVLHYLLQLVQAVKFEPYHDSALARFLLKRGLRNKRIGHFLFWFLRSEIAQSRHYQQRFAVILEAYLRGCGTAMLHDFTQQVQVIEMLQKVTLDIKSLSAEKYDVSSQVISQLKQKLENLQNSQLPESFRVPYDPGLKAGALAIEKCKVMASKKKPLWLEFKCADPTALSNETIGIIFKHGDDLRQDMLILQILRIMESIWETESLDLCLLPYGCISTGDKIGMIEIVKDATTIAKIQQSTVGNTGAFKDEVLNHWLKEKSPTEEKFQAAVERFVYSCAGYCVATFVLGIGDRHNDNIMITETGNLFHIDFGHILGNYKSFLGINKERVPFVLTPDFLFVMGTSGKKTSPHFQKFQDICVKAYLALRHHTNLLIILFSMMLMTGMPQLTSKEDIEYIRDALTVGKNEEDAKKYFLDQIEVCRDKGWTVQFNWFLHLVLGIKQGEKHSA

PI3Kδ [13] = target: T1, PI3Kδ; conditions: cited from earlier work; remark: listed apart in the source
[14] = B cell proliferation, activated by αIgM and ODN2006, 4 days

T1 sequence (O00329 whole entry, looked up): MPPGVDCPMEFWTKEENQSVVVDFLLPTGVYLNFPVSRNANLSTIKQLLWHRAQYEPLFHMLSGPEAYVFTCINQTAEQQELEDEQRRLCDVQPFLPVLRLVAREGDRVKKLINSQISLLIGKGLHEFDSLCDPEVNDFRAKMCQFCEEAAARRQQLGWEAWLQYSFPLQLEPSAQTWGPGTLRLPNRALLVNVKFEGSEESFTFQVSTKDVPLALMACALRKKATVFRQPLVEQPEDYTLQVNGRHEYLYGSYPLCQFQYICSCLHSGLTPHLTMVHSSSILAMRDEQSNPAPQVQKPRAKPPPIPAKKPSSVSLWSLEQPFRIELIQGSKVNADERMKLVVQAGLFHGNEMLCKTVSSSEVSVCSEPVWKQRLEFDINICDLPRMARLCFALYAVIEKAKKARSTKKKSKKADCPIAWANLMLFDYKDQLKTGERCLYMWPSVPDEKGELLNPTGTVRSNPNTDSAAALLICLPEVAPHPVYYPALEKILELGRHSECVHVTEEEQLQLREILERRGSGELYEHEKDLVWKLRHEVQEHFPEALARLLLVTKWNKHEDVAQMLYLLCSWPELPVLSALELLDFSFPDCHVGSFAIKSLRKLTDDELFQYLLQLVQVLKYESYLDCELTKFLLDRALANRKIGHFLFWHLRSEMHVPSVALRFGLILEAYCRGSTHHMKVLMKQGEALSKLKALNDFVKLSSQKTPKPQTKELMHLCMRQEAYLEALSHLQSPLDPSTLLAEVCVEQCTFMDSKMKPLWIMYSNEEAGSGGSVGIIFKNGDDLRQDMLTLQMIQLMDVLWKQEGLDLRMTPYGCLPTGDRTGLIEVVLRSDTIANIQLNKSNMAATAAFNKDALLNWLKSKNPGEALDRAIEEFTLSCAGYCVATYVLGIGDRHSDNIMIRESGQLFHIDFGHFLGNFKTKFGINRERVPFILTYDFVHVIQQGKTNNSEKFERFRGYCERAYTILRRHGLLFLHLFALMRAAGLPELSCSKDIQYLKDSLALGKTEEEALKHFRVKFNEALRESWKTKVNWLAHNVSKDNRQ
T2 sequence (P42336 whole entry): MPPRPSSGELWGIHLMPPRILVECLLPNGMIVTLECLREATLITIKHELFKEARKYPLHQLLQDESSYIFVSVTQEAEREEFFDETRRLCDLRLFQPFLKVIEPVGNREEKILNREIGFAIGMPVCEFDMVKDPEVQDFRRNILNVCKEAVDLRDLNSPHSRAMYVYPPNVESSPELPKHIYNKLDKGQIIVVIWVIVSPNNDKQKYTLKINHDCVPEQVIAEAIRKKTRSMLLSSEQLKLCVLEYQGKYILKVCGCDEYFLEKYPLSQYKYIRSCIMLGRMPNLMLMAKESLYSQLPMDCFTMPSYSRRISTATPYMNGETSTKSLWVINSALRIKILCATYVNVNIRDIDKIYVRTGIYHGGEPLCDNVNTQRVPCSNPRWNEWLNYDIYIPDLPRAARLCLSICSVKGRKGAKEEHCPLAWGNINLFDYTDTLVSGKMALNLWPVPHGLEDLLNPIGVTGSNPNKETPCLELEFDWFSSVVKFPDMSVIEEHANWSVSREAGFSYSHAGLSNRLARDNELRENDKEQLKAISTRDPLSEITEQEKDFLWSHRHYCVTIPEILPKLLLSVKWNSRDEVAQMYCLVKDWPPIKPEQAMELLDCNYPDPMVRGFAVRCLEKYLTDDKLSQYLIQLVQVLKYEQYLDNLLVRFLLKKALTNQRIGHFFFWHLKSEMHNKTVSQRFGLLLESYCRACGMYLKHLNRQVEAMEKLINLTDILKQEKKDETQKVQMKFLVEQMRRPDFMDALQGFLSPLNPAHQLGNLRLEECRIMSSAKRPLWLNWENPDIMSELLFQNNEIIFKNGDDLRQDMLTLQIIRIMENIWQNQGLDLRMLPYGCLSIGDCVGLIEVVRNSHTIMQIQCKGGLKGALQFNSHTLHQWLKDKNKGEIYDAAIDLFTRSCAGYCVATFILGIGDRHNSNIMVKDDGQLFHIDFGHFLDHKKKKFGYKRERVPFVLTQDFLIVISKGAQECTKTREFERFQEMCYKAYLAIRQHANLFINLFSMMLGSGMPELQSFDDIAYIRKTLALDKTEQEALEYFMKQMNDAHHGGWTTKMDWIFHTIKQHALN
T2 sequence (P27986 whole entry partner): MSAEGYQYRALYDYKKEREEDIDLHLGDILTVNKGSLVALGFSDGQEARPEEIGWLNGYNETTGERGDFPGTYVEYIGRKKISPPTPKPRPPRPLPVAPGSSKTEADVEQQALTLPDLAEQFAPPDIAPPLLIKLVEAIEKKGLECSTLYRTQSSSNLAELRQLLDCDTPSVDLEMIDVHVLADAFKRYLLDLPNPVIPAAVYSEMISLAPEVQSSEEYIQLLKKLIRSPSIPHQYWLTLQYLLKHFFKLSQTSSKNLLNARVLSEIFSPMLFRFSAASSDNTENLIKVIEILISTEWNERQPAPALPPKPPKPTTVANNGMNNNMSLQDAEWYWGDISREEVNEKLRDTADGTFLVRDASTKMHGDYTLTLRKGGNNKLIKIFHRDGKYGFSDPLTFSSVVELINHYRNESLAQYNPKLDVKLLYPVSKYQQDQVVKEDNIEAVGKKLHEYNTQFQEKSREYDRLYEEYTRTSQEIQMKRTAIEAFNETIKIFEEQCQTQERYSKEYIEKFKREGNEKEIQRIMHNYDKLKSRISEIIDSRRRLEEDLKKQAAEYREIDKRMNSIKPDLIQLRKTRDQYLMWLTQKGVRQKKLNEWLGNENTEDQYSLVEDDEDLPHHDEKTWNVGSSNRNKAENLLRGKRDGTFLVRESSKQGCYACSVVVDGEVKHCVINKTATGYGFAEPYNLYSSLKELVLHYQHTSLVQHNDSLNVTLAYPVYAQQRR

Cc1cc2nc(-n3c(C(F)F)nc4ccccc43)cc(N3CCOCC3)n2n1 [Compound 1]
IC50 (PI3Kδ [1]): 475 nM | selectivity toward the alpha isoform (PI3Kα [2]): poor

CC(C)(C)N1CCN(Cc2cc3nc(-n4c(C(F)F)nc5ccccc54)cc(N4CCOCC4)n3n2)CC1 [Compound 6, 1-{2-[(4-tert-butylpiperazin-1-yl)methyl]-7-(morpholin-4-yl)pyrazolo[1,5-a]pyrimidin-5-yl}-2-(difluoromethyl)-1H-benzimidazole]
Papp (PAMPA permeability): 13.3 ×10⁻⁶ cm/s | IC50 (CD19+ B cells; B-cell): 41 nM | fraction unbound [3]: 0.18 | microsomal CLint at 1 μM ([4]; CD-1, read-out: Metabolic Stability MLM CL): 3.7 µL/min/mg | half-life at 1 μM ([4]; CD-1, read-out: Metabolic Stability MLM t½): 6.3 h | fraction unbound [5]: 0.19 | IC50 (PI3Kβ): 25500 nM | Fold Selectivity β/δ (PI3Kβ): 1415 | half-life at 1 μM [6]: 2.42 h | solubility kinetic at 24 h [7]: > 500 µM | bioavailability (Bioavailability in dogs): > 90% | IC50 (PI3Kα [8]): 1430 nM | Fold Selectivity α/δ (PI3Kα [8]): 79 | IC50 (PI3Kδ [9]): 18 nM | fraction unbound [10]: 0.17 | bioavailability (Bioavailability in mice): > 55% | fraction unbound [11]: 0.17 to 0.21 | fraction unbound [12]: 0.21 | IC50 (PI3Kγ): 16900 nM | Fold Selectivity γ/δ (PI3Kγ): 939

CS(=O)(=O)N1CCN(Cc2cc3nc(-n4c(C(F)F)nc5ccccc54)cc(N4CCOCC4)n3n2)CC1 [Compound 16, 2-(difluoromethyl)-1-{2-[(4-methanesulfonylpiperazin-1-yl)methyl]-7-(morpholin-4-yl)pyrazolo[1,5-a]pyrimidin-5-yl}-1H-1,3-benzimidazole]
IC50 (CD19+ B cells; [14]): 114 nM | IC50 (PI3Kβ): 13600 nM | Fold Selectivity β/δ (PI3Kβ): 316 | IC50 (PI3Kα [8]): 44 nM | Fold Selectivity α/δ (PI3Kα [8]): 1.0 | IC50 (PI3Kδ [9]): 43 nM | IC50 (PI3Kγ): 111 nM | Fold Selectivity γ/δ (PI3Kγ): 2.6

CC(C)(C(N)=O)N1CCN(Cc2cc3nc(-n4c(C(F)F)nc5ccccc54)cc(N4CCOCC4)n3n2)CC1 [Compound 17, 2-[4-({5-[2-(difluoromethyl)-1H-1,3-benzimidazol-1-yl]-7-(morpholin-4-yl)pyrazolo[1,5-a]pyrimidin-2-yl}methyl)piperazin-1-yl]-2-methylpropanamide]
IC50 (CD19+ B cells; [14]): 52 nM | IC50 (PI3Kβ): 44800 nM | Fold Selectivity β/δ (PI3Kβ): 1444 | IC50 (PI3Kα [8]): 624 nM | Fold Selectivity α/δ (PI3Kα [8]): 20 | IC50 (PI3Kδ [9]): 31 nM | IC50 (PI3Kγ): 2200 nM | Fold Selectivity γ/δ (PI3Kγ): 71

O=C(C1CC1)N1CCN(Cc2cc3nc(-n4c(C(F)F)nc5ccccc54)cc(N4CCOCC4)n3n2)CC1 [Compound 18]
IC50 (CD19+ B cells; [14]): 58 nM | IC50 (PI3Kβ): 47400 nM | Fold Selectivity β/δ (PI3Kβ): 1973 | IC50 (PI3Kα [8]): 73 nM | Fold Selectivity α/δ (PI3Kα [8]): 3.0 | IC50 (PI3Kδ [9]): 24 nM | IC50 (PI3Kγ): 156 nM | Fold Selectivity γ/δ (PI3Kγ): 6.5

CS(=O)(=O)N1CCN(Cc2cc3nc(-c4cccc5[nH]ncc45)nc(N4CCOCC4)c3s2)CC1 [GDC-0941, 2-(1 H -Indazol-4-Yl)-6-(4-Methanesulfonyl-Piperazin-1-Ylmethyl)-4-Morpholin-4-Yl-Thieno [3,2-d]Pyrimidine]
PI3Kγ/δ selectivity (PI3Kδ [13]): poor

Reference: article PMC9415947 (Pharmaceuticals, 2022)
